We go through 36 molecules from US20120178666A1 (SHIRE LLC, priority 2009, published 2012).

Data set [1] can be described thus: Prodrug stability in simulated gastric fluid (USP). To be noted: 37° C.
Procedure: (§1) The remaining concentrations of the prodrugs were then assayed by HPLC.
Data set [2] is described as follows: Prodrug stability in simulated intestinal fluid (USP). To be noted: 37° C.
Procedure: as §1

Turning to `NC(=O)CC[C@@H]1N=C(NC(=O)Cc2c(Cl)cccc2Cl)NC1=O` [Compound 38, Guanfacine-(S)-Glutamine Cyclic adduct], in data set [1], the “% prodrug remaining following incubation for: 1 h in simulated gastric fluid pH 1.1” value is given as 70%. Moreover, the “% prodrug remaining following incubation for: 2 h in simulated intestinal fluid pH 6.8” value in data set [2] is listed as 87%.

For `CC(C)[C@@H](N)C(=O)N[C@H](CCC(=O)NC(=N)NC(=O)Cc1c(Cl)cccc1Cl)C(=O)O` [Compound 31, (R)-Valine-(R)-γ-Glutamate(Guanfacine) Amide], the “% prodrug remaining following incubation for: 1 h in simulated gastric fluid pH 1.1” value in data set [1] is recorded as 70%. Moreover, the “% prodrug remaining following incubation for: 2 h in simulated intestinal fluid pH 6.8” value in data set [2] was 85%.

In the case of `CC(C)[C@@H](NC(=O)COC(=O)NC(=N)NC(=O)Cc1c(Cl)cccc1Cl)C(=O)O` [Compound 30, Guanfacine (glycolyl-(R)-Valine) Carbamate], the “% prodrug remaining following incubation for: 1 h in simulated gastric fluid pH 1.1” value in data set [1] is 77%. The “% prodrug remaining following incubation for: 2 h in simulated intestinal fluid pH 6.8” value in data set [2] is 160%.

Take `N=C(NC(=O)CC[C@H](NC(=O)c1ccc(C(=O)O)cc1)C(=O)O)NC(=O)Cc1c(Cl)cccc1Cl` [Compound 60, Terephthalic acid-(S)-γ-Glutamate(Guanfacine) Amide]: in data set [1], the “% prodrug remaining following incubation for: 1 h in simulated gastric fluid pH 1.1” value was 81%. Also, in data set [2], the “% prodrug remaining following incubation for: 2 h in simulated intestinal fluid pH 6.8” value is on record as 97%.

With `N=C(NC(=O)CCCNC(=O)[C@@H]1CCC(=O)N1)NC(=O)Cc1c(Cl)cccc1Cl` [Compound 23, Guanfacine (GABA-(S)-Pyroglutamic acid) Amide], the “% prodrug remaining following incubation for: 1 h in simulated gastric fluid pH 1.1” value in data set [1] is 98%. In data set [2], the “% prodrug remaining following incubation for: 2 h in simulated intestinal fluid pH 6.8” value was 78%.

Regarding `CC(C)[C@H](N)C(=O)N[C@H](CCC(=O)NC(=N)NC(=O)Cc1c(Cl)cccc1Cl)C(=O)O` [Compound 32, (S)-Valine-(R)-γ-Glutamate (Guanfacine) Amide], the “% prodrug remaining following incubation for: 1 h in simulated gastric fluid pH 1.1” value in data set [1] is listed as 93%. The “% prodrug remaining following incubation for: 2 h in simulated intestinal fluid pH 6.8” value in data set [2] is on record as 84%.

For `CC(C)[C@H](N)C(=O)NCCOC(=O)NC(=N)NC(=O)Cc1c(Cl)cccc1Cl` [Compound 26, Guanfacine ethanolamine-(S)-Valine Carbamate], the “% prodrug remaining following incubation for: 1 h in simulated gastric fluid pH 1.1” value in data set [1] is listed as 97%. The “% prodrug remaining following incubation for: 2 h in simulated intestinal fluid pH 6.8” value in data set [2] is listed as 91%.

As to `CC(C)[C@@H](N)C(=O)NCCCC(=O)NC(=N)NC(=O)Cc1c(Cl)cccc1Cl` [Compound 22, (R)-Valine aminobutanoyl Guanfacine Amide], in data set [2], the “% prodrug remaining following incubation for: 2 h in simulated intestinal fluid pH 6.8” value is recorded as 85%.

With `CSCC[C@@H](N)C(=O)N[C@@H](CCC(=O)NC(=N)NC(=O)Cc1c(Cl)cccc1Cl)C(=O)O` [Compound 44, (R)-Methionine-(S)-γ-Glutamate(Guanfacine) Amide], the “% prodrug remaining following incubation for: 1 h in simulated gastric fluid pH 1.1” value in data set [1] is given as 75%. In addition, the “% prodrug remaining following incubation for: 2 h in simulated intestinal fluid pH 6.8” value in data set [2] is recorded as 85%.

In the case of `CC(=O)N[C@@H](COC(=O)NC(=N)NC(=O)Cc1c(Cl)cccc1Cl)C(=O)O` [Compound 15, Acetyl-(S)-Serine (Guanfacine) Carbamate], in data set [1], the “% prodrug remaining following incubation for: 1 h in simulated gastric fluid pH 1.1” value is listed as 83%.

For `C[C@@H](OC(=O)NC(=N)NC(=O)Cc1c(Cl)cccc1Cl)[C@H](NC(=O)[C@@H]1CCC(=O)N1)C(=O)O` [Compound 19, (S)-Pyroglutamic acid-(S)-Threonine(Guanfacine) Carbamate], the “% prodrug remaining following incubation for: 1 h in simulated gastric fluid pH 1.1” value in data set [1] was 92%.

For the molecule `N=C(NC(=O)Cc1c(Cl)cccc1Cl)NC(=O)OCC[C@H](N)C(=O)O` [Compound 65, (S)-Homoserine Guanfacine Carbamate], the “% prodrug remaining following incubation for: 1 h in simulated gastric fluid pH 1.1” value in data set [1] was 90%. The “% prodrug remaining following incubation for: 2 h in simulated intestinal fluid pH 6.8” value in data set [2] is recorded as 99%.

As to `N=C(NC(=O)CC[C@H](NC(=O)[C@H](N)CCC(N)=O)C(=O)O)NC(=O)Cc1c(Cl)cccc1Cl` [Compound 46, (R)-Glutamine-(S)-γ-Glutamate(Guanfacine) Amide], the “% prodrug remaining following incubation for: 1 h in simulated gastric fluid pH 1.1” value in data set [1] is given as 61%. For the same molecule, the “% prodrug remaining following incubation for: 2 h in simulated intestinal fluid pH 6.8” value in data set [2] was 81%.

In the case of `CC(C)[C@@H](N)C(=O)N[C@@H](COC(=O)NC(=N)NC(=O)Cc1c(Cl)cccc1Cl)C(=O)O` [Compound 18, (R)-Valine-(S)-Serine(Guanfacine) Carbamate], the “% prodrug remaining following incubation for: 1 h in simulated gastric fluid pH 1.1” value in data set [1] is 74%.

Take `CC(C)[C@@H](N)C(=O)N[C@H](C(=O)O)[C@@H](C)OC(=O)NC(=N)NC(=O)Cc1c(Cl)cccc1Cl` [Compound 21, (R)-Valine-(S)-Threonine(Guanfacine) Carbamate]: the “% prodrug remaining following incubation for: 1 h in simulated gastric fluid pH 1.1” value in data set [1] was 83%.

Turning to `CC(C)[C@@H]1N=C(NC(=O)Cc2c(Cl)cccc2Cl)NC1=O` [Compound 35, Guanfacine-(S)-Valine Cyclic adduct], the “% prodrug remaining following incubation for: 1 h in simulated gastric fluid pH 1.1” value in data set [1] is on record as 83%.

Turning to `CCC(C)[C@@H](N)C(=O)NCCCC(=O)NC(=N)NC(=O)Cc1c(Cl)cccc1Cl` (stereo partly drawn) [Compound 50, Guanfacine (GABA-(R)-Isoleucine) Amide], the “% prodrug remaining following incubation for: 1 h in simulated gastric fluid pH 1.1” value in data set [1] is given as 85%. Moreover, the “% prodrug remaining following incubation for: 2 h in simulated intestinal fluid pH 6.8” value in data set [2] is listed as 81%.

For the molecule `C[C@@H]1N=C(NC(=O)Cc2c(Cl)cccc2Cl)NC1=O` [Compound 39, Guanfacine-(S)-Alanine Cyclic adduct], the “% prodrug remaining following incubation for: 1 h in simulated gastric fluid pH 1.1” value in data set [1] is reported as 89%.

For `NCCCC[C@@H]1N=C(NC(=O)Cc2c(Cl)cccc2Cl)NC1=O` [Compound 36, Guanfacine-(S)-Lysine Cyclic adduct], the “% prodrug remaining following incubation for: 1 h in simulated gastric fluid pH 1.1” value in data set [1] was 83%.

Regarding `CNCC(=O)N[C@@H](CCOC(=O)NC(=N)NC(=O)Cc1c(Cl)cccc1Cl)C(=O)O` [Compound 66, Sarcosine-(S)-Homoserine (Guanfacine) Carbamate], the “% prodrug remaining following incubation for: 1 h in simulated gastric fluid pH 1.1” value in data set [1] is reported as 86%.

Turning to `CC(C)[C@H](N)C(=O)NCCCC(=O)NC(=N)NC(=O)Cc1c(Cl)cccc1Cl` [Compound 56, Guanfacine (GABA-(S)-Valine) Amide], the “% prodrug remaining following incubation for: 1 h in simulated gastric fluid pH 1.1” value in data set [1] was 70%.

`N=C(NC(=O)Cc1c(Cl)cccc1Cl)NC(=O)OC[C@H](NC(=O)[C@@H]1CCC(=O)N1)C(=O)O` [Compound 16, (S)-Pyroglutamic acid-(S)-Serine(Guanfacine) Carbamate]: the “% prodrug remaining following incubation for: 1 h in simulated gastric fluid pH 1.1” value in data set [1] is 78%. For the same molecule, in data set [2], the “% prodrug remaining following incubation for: 2 h in simulated intestinal fluid pH 6.8” value is 95%.

With `CC(C)(CO)[C@@H](O)C(=O)NCCCOC(=O)NC(=N)NC(=O)Cc1c(Cl)cccc1Cl` [Compound 69, Guanfacine Panthenol Carbamate], the “% prodrug remaining following incubation for: 1 h in simulated gastric fluid pH 1.1” value in data set [1] is on record as 85%. For the same molecule, in data set [2], the “% prodrug remaining following incubation for: 2 h in simulated intestinal fluid pH 6.8” value is 96%.

For `CNCC(=O)N[C@@H](CCC(=O)NC(=N)NC(=O)Cc1c(Cl)cccc1Cl)C(=O)O` [Compound 7, Sarcosine-(S)-γ-Glutamate-Guanfacine Amide], in data set [1], the “% prodrug remaining following incubation for: 1 h in simulated gastric fluid pH 1.1” value is 79%. Besides, in data set [2], the “% prodrug remaining following incubation for: 2 h in simulated intestinal fluid pH 6.8” value is given as 66%.

In the case of `CNCC(=O)NCCOC(=O)NC(=N)NC(=O)Cc1c(Cl)cccc1Cl` [Compound 71, Guanfacine ethanolamine-Sarcosine Carbamate], the “% prodrug remaining following incubation for: 1 h in simulated gastric fluid pH 1.1” value in data set [1] is 91%. Further, the “% prodrug remaining following incubation for: 2 h in simulated intestinal fluid pH 6.8” value in data set [2] is given as 89%.

As for `N=C(NC(=O)Cc1c(Cl)cccc1Cl)NC(=O)OC[C@H](NC(=O)CCN)C(=O)O` [Compound 64, β-Alanine-(S)-Serine (Guanfacine) Carbamate], in data set [1], the “% prodrug remaining following incubation for: 1 h in simulated gastric fluid pH 1.1” value was 88%. Besides, in data set [2], the “% prodrug remaining following incubation for: 2 h in simulated intestinal fluid pH 6.8” value is reported as 93%.

As to `O=C1CCN=C(NC(=O)Cc2c(Cl)cccc2Cl)N1` [Compound 34, Guanfacine β Alanine Cyclic adduct], the “% prodrug remaining following incubation for: 1 h in simulated gastric fluid pH 1.1” value in data set [1] is listed as 51%. The “% prodrug remaining following incubation for: 2 h in simulated intestinal fluid pH 6.8” value in data set [2] is listed as 91%.

Take `N=C(NC(=O)Cc1c(Cl)cccc1Cl)NC(=O)Nc1ccc(C(=O)O)cc1` [Compound 53, Guanfacine PABA Urea]: the “% prodrug remaining following incubation for: 2 h in simulated intestinal fluid pH 6.8” value in data set [2] is reported as 100%.

`O=C(O)CC1N=C(NC(=O)Cc2c(Cl)cccc2Cl)NC1=O` (stereo not shown) [Compound 4, Guanfacine fumaryl Cyclic adduct]: the “% prodrug remaining following incubation for: 1 h in simulated gastric fluid pH 1.1” value in data set [1] is 97%. Moreover, in data set [2], the “% prodrug remaining following incubation for: 2 h in simulated intestinal fluid pH 6.8” value is listed as 84%.

As for `CC(C)[C@@H](N)C(=O)NCCOC(=O)NC(=N)NC(=O)Cc1c(Cl)cccc1Cl` [Compound 27, Guanfacine (ethanolamine-(R)-Valine) Carbamate], the “% prodrug remaining following incubation for: 1 h in simulated gastric fluid pH 1.1” value in data set [1] was 78%.

On to `N=C(NC(=O)Cc1c(Cl)cccc1Cl)NC(=O)NC(C(=O)O)c1ccccc1` (stereo not shown) [Compound 8, Guanfacine Phenylglycine Urea], for which the “% prodrug remaining following incubation for: 1 h in simulated gastric fluid pH 1.1” value in data set [1] is given as 96%. For the same molecule, in data set [2], the “% prodrug remaining following incubation for: 2 h in simulated intestinal fluid pH 6.8” value is recorded as 100%.

`C[C@H]1N=C(NC(=O)Cc2c(Cl)cccc2Cl)NC1=O` [Compound 51, Guanfacine-(R)-Alanine Cyclic adduct]: the “% prodrug remaining following incubation for: 1 h in simulated gastric fluid pH 1.1” value in data set [1] is listed as 80%.

For `N=C(NC(=O)Cc1c(Cl)cccc1Cl)NC(=O)O[C@@H]1CN[C@H](C(=O)O)C1` [Compound 14, (S)-4-Hydroxyproline-(Guanfacine) Carbamate], the “% prodrug remaining following incubation for: 1 h in simulated gastric fluid pH 1.1” value in data set [1] is given as 70%.

`N=C(NC(=O)CCNC(=O)[C@@H]1CCC(=O)N1)NC(=O)Cc1c(Cl)cccc1Cl` [Compound 10, Guanfacine B-Alanine-(S)-Pyroglutamic acid Amide]: the “% prodrug remaining following incubation for: 1 h in simulated gastric fluid pH 1.1” value in data set [1] is 82%.

As for `N=C(NC(=O)Cc1c(Cl)cccc1Cl)NC(=O)OCCNC(=O)CN` [Compound 49, Guanfacine (ethanolamine Glycine) Carbamate], in data set [1], the “% prodrug remaining following incubation for: 1 h in simulated gastric fluid pH 1.1” value was 87%.

With `N=C(NC(=O)CCCNC(=O)CC[C@H](N)C(=O)O)NC(=O)Cc1c(Cl)cccc1Cl` [Compound 57, Guanfacine (GABA-(S)-Glutamate) Amide], the “% prodrug remaining following incubation for: 1 h in simulated gastric fluid pH 1.1” value in data set [1] is reported as 81%.
